{"source": "patent US20150322083A1", "about": "“(THIENO[2,3-b][1,5]BENZOXAZEPIN-4-YL)PIPERAZIN-1-YL COMPOUNDS AS SELECTIVE 5-HT2A INVERSE AGONISTS” (Eli Lilly and Company, priority 2014, published 2015)", "tested_on": "sleep and locomotor activity of rats", "test": "Sleep and behavioral monitoring in rats (EEG, EMG, motion)", "format": "in vivo", "settings": "rat; for Rebound Insomnia, Adj. Mean: NREM + REM sleep in 7th-9th hours post-treatment; for Rebound Insomnia, Adj. Mean / REM inhibition, Adj. Mean / Cumulative NREM sleep, Adj. Mean / Cumulative Total sleep, Adj. Mean / Locomotor Activity Intensity, Adj. Mean: difference from vehicle; for REM inhibition, Adj. Mean: REM sleep in first 12 hr. post-treatment; for Average Sleep Bout, Adj. Mean / Longest Sleep Bout / Cumulative NREM sleep, Adj. Mean / Cumulative Total sleep, Adj. Mean / Locomotor Activity Intensity, Adj. Mean: first 6 hr. post-treatment", "excerpt": "Sleep and behavioral monitoring in rats: The compounds of the present invention may be tested in rats for their ability to increase the amount of sleep or decrease sleep interruption or both without undesired effects such as inhibition of REM sleep, waking motor impairment, and/or rebound insomnia. Test animals are continuously monitored by electro-encephalograms (EEG), electromyograms (EMG), and motion to measure cumulative nonREM sleep, cumulative total sleep, average sleep bout duration, longest sleep bout duration, rebound insomnia, REM sleep inhibition and locomotor activity intensity during wakefulness. Methods for such studies are known in the art (see for example methods described in Edgar D M, Seidel W F. Modafinil induces wakefulness without intensifying motor activity or subsequent rebound hypersomnolence in the rat. J Pharmacology & Experimental Therapeutics 1997; 283: 757-769; van Gelder R N, Edgar D M, Dement W C. Real-time automated sleep scoring: validation of a microcomputer-based system for mice. Sleep 1991, 14: 48-55; and Gross B A, Walsh C M, Turakhia A A, Booth V, Mashour G A, Poe G R. Open-source logic-based automated sleep scoring software using electrophysiological recordings in rats. J Neurosci Methods. 2009; 184(1):10-8.) Studies are conducted as follows:\nAnimal preparation. Adult, male Wistar rats (approximately 270-300 g at time of surgery) are surgically fitted for chronic recording of EEG, EMG, and motion as follows: Rats are surgically prepared with a cranial implant consisting of four stainless steel screws for EEG recording (two frontal [3.9 mm anterior from bregma, and ±2.0 mm mediolaterally] and two occipital [6.4 mm posterior from bregma, ±5.5 mm mediolaterally]), and with two Teflon-coated stainless steel wires for EMG recording (positioned under the nuchal trapezoid muscles). All leads are soldered to a miniature connector (Microtech, Boothwyn, Pa.) prior to surgery. The implant assembly is affixed to the skull by the combination of the stainless steel EEG recording screws, cyanoacrylate applied between the implant connector and skull, and dental acrylic. Locomotor activity is monitored via a miniature transmitter (Minimitter PDT4000G, Philips Respironics, Bend, Oreg.) surgically placed into the abdomen. At least 3 weeks are allowed for recovery.\nRecording environment. Each rat is housed individually within a microisolator cage modified with an inserted polycarbonate filter-top riser to allow more vertical headroom. A flexible cable that minimally restricts movement is connected at one end to a commutator afixed to the cage top and at the other end to the animal's cranial implant. Each cage is located within separate, ventilated compartments of a stainless steel sleep-wake recording chamber. Food and water are available ad libitum and the ambient temperature is maintained at about 23±1° C. A 24-hr light-dark cycle (LD 12:12) using fluorescent light is maintained throughout the study. Relative humidity averages approximately 50%. Animals are undisturbed for at least 30 hrs before and after each treatment.\nStudy design and dosing. The vehicle (placebo, methylcellulose 15 centipoise 0.25% in water) or one of the test compound dose levels is administered orally at 1 mL/kg pseudo-randomly such that no rat receives the same treatment twice, and no rat receives more than two of the 8 treatments in any one study. Each rat is removed from its cage for about a minute to be weighed and treated. At least 6 days “washout” period precede and follow each treatment.\nData collection. […]", "key": {"[1]": {"settings": "PO, 6 hr. after treatment, 4 parameter logistic regression"}}, "data": [{"smiles": "Cc1ccc2c(c1)Oc1sc(SC(C)C)cc1C(N1CCN(CC(C)(C)C(=O)O)CC1)=N2", "note": "[Example 1, 3-[4-(2-isopropylsulfanyl-8-methyl-thieno[2,3-b][1,5]benzoxazepin-4-yl)piperazin-1-yl]-2,2-dimethyl-propanoic acid]", "values": [{"measurement": "Rebound Insomnia, Adj. Mean", "setting": "0.1 mg/kg PO", "value": -0.4, "unit": "min"}, {"measurement": "REM inhibition, Adj. Mean", "setting": "0.1 mg/kg PO", "value": 0.5, "unit": "min"}, {"measurement": "Average Sleep Bout, Adj. Mean", "setting": "0.1 mg/kg PO", "value": "1.09 n-fold increase over vehicle controls"}, {"measurement": "Longest Sleep Bout", "setting": "0.1 mg/kg PO", "value": "0.85 n-fold increase over vehicle controls"}, {"measurement": "Cumulative NREM sleep, Adj. Mean", "setting": "0.1 mg/kg PO", "value": 14.6, "unit": "min"}, {"measurement": "Cumulative Total sleep, Adj. Mean", "setting": "0.1 mg/kg PO", "value": 13.1, "unit": "min"}, {"measurement": "Locomotor Activity Intensity, Adj. Mean", "setting": "0.1 mg/kg PO", "value": "−1.31 LMA counts per minute of EEG-defined wakefulness"}, {"measurement": "Rebound Insomnia, Adj. Mean", "setting": "0.25 mg/kg PO", "value": -1.0, "unit": "min"}, {"measurement": "REM inhibition, Adj. Mean", "setting": "0.25 mg/kg PO", "value": 1.4, "unit": "min"}, {"measurement": "Average Sleep Bout, Adj. Mean", "setting": "0.25 mg/kg PO", "value": "1.32 n-fold increase over vehicle controls"}, {"measurement": "Longest Sleep Bout", "setting": "0.25 mg/kg PO", "value": "1.49 n-fold increase over vehicle controls"}, {"measurement": "Cumulative NREM sleep, Adj. Mean", "setting": "0.25 mg/kg PO", "value": 17.8, "unit": "min"}, {"measurement": "Cumulative Total sleep, Adj. Mean", "setting": "0.25 mg/kg PO", "value": 21.1, "unit": "min"}, {"measurement": "Locomotor Activity Intensity, Adj. Mean", "setting": "0.25 mg/kg PO", "value": "−1.22 LMA counts per minute of EEG-defined wakefulness"}, {"measurement": "Rebound Insomnia, Adj. Mean", "setting": "0.5 mg/kg PO", "value": 4.4, "unit": "min"}, {"measurement": "REM inhibition, Adj. Mean", "setting": "0.5 mg/kg PO", "value": 6.6, "unit": "min"}, {"measurement": "Average Sleep Bout, Adj. Mean", "setting": "0.5 mg/kg PO", "value": "1.75 n-fold increase over vehicle controls"}, {"measurement": "Longest Sleep Bout", "setting": "0.5 mg/kg PO", "value": "1.79 n-fold increase over vehicle controls"}, {"measurement": "Cumulative NREM sleep, Adj. Mean", "setting": "0.5 mg/kg PO", "value": 24.1, "unit": "min"}, {"measurement": "Cumulative Total sleep, Adj. Mean", "setting": "0.5 mg/kg PO", "value": 28.2, "unit": "min"}, {"measurement": "Locomotor Activity Intensity, Adj. Mean", "setting": "0.5 mg/kg PO", "value": "−1.49 LMA counts per minute of EEG-defined wakefulness"}, {"measurement": "Rebound Insomnia, Adj. Mean", "setting": "1 mg/kg PO", "value": 1.5, "unit": "min"}, {"measurement": "REM inhibition, Adj. Mean", "setting": "1 mg/kg PO", "value": 5.6, "unit": "min"}, {"measurement": "Average Sleep Bout, Adj. Mean", "setting": "1 mg/kg PO", "value": "1.71 n-fold increase over vehicle controls"}, {"measurement": "Longest Sleep Bout", "setting": "1 mg/kg PO", "value": "1.89 n-fold increase over vehicle controls"}, {"measurement": "Cumulative NREM sleep, Adj. Mean", "setting": "1 mg/kg PO", "value": 30.0, "unit": "min"}, {"measurement": "Cumulative Total sleep, Adj. Mean", "setting": "1 mg/kg PO", "value": 31.4, "unit": "min"}, {"measurement": "Locomotor Activity Intensity, Adj. Mean", "setting": "1 mg/kg PO", "value": "−4.04 LMA counts per minute of EEG-defined wakefulness"}, {"measurement": "Rebound Insomnia, Adj. Mean", "setting": "3 mg/kg PO", "value": 8.8, "unit": "min"}, {"measurement": "REM inhibition, Adj. Mean", "setting": "3 mg/kg PO", "value": -1.4, "unit": "min"}, {"measurement": "Average Sleep Bout, Adj. Mean", "setting": "3 mg/kg PO", "value": "1.75 n-fold increase over vehicle controls"}, {"measurement": "Longest Sleep Bout", "setting": "3 mg/kg PO", "value": "2.17 n-fold increase over vehicle controls"}, {"measurement": "Cumulative NREM sleep, Adj. Mean", "setting": "3 mg/kg PO", "value": 31.5, "unit": "min"}, {"measurement": "Cumulative Total sleep, Adj. Mean", "setting": "3 mg/kg PO", "value": 32.8, "unit": "min"}, {"measurement": "Locomotor Activity Intensity, Adj. Mean", "setting": "3 mg/kg PO", "value": "−1.86 LMA counts per minute of EEG-defined wakefulness"}, {"measurement": "Rebound Insomnia, Adj. Mean", "setting": "10 mg/kg PO", "value": 2.5, "unit": "min"}, {"measurement": "REM inhibition, Adj. Mean", "setting": "10 mg/kg PO", "value": -4.4, "unit": "min"}, {"measurement": "Average Sleep Bout, Adj. Mean", "setting": "10 mg/kg PO", "value": "2.01 n-fold increase over vehicle controls"}, {"measurement": "Longest Sleep Bout", "setting": "10 mg/kg PO", "value": "2.29 n-fold increase over vehicle controls"}, {"measurement": "Cumulative NREM sleep, Adj. Mean", "setting": "10 mg/kg PO", "value": 38.3, "unit": "min"}, {"measurement": "Cumulative Total sleep, Adj. Mean", "setting": "10 mg/kg PO", "value": 39.1, "unit": "min"}, {"measurement": "Locomotor Activity Intensity, Adj. Mean", "setting": "10 mg/kg PO", "value": "−1.90 LMA counts per minute of EEG-defined wakefulness"}, {"measurement": "Rebound Insomnia, Adj. Mean", "setting": "20 mg/kg PO", "value": 2.1, "unit": "min"}, {"measurement": "REM inhibition, Adj. Mean", "setting": "20 mg/kg PO", "value": -9.3, "unit": "min"}, {"measurement": "Average Sleep Bout, Adj. Mean", "setting": "20 mg/kg PO", "value": "1.88 n-fold increase over vehicle controls"}, {"measurement": "Longest Sleep Bout", "setting": "20 mg/kg PO", "value": "1.90 n-fold increase over vehicle controls"}, {"measurement": "Cumulative NREM sleep, Adj. Mean", "setting": "20 mg/kg PO", "value": 40.2, "unit": "min"}, {"measurement": "Cumulative Total sleep, Adj. Mean", "setting": "20 mg/kg PO", "value": 38.0, "unit": "min"}, {"measurement": "Locomotor Activity Intensity, Adj. Mean", "setting": "20 mg/kg PO", "value": "−0.59 LMA counts per minute of EEG-defined wakefulness"}, {"measurement": "apparent LMI impairment (in words)", "setting": "1 mg/kg PO", "value": "statistically significant at that dose"}, {"measurement": "REM sleep inhibition versus threshold value of -10 min. (in words)", "setting": "20 mg/kg PO", "value": "exceeded the threshhold value"}, {"measurement": "effect on cumulative NREM sleep time and cumulative total sleep time (in words)", "setting": "PO", "value": "statistically significant increase"}, {"measurement": "Estimated efficacy dose, Average sleep bout (1.5-fold increase)", "setting": "[1]", "value": 0.33, "unit": "mg/kg"}, {"measurement": "Estimated efficacy dose, Longest sleep bout (1.75-fold increase)", "setting": "[1]", "value": 0.45, "unit": "mg/kg"}, {"measurement": "Estimated efficacy dose, NREM accumulation = 30 min.", "setting": "[1]", "value": 1.5, "unit": "mg/kg"}, {"measurement": "Estimated efficacy dose, Total sleep accumulation = 25 min.", "setting": "[1]", "value": 0.39, "unit": "mg/kg"}, {"measurement": "rebound insomnia or REM sleep inhibition (in words)", "setting": "PO, at up to 10 times the conservative efficacy dose", "value": "without statistically significant rebound insomnia or REM sleep inhibition"}]}]}
